Measurements published in patent US8410150B2, “Inhibitors of carnitine palmitoyltransferase and treating cancer” (University Health Network, priority 2007, dated 2013).
Like-named read-outs stand apart in the source and are kept apart here.

What was measured:
[1] = system: Caov-3; assay: Cell growth inhibition, SRB assay; assay type: cell-based, human; conditions: Homo sapiens; Ovarian Caov-3, 3% FBS
Procedure: (§1) Compounds were dissolved in DMSO and further diluted in cell culture medium for the experiments performed. Cells were seeded into 96-well plates with 1,500-5,000 cells/well according to cell growth rate. After 24 h, DMEM medium containing 10% FBS were changed to DMEM containing 3% FBS for cancer cells and additional 3% FBS were added into the culture medium for normal cells. The compound was added into the cell culture at the indicated concentrations, and the final concentration of DMSO was adjusted to a final concentration of 0.1%. Cells were subjected to either normoxic condition (20% O2) for 6 days or hypoxic condition (0.2% O2) for 2 days and then transferred to normoxic condition for 4 days. Cell viability was assessed by Sulforhodamine B (SRB) assay at Day 6.
(§2) Sulforhodamine B (SRB) (Sigma, Oakville, ON, Canada) is a water-soluble dye that binds to the basic amino acids of the cellular proteins. Thus, colorimetric measurement of the bound dye provides an estimate of the total protein mass that is related to the cell number. The cells were fixed in situ by gently aspirating off the culture media and adding 50 ul of cold 10% trichloroacetic Acid (TCA) per well and incubated at 4° C. for 30-60 min. The plates were washed five times with water and allowed to air dry for 5 min. 50 ul of 0.4% (w/v) SRB dissolved in 1% (v/v) acetic acid were added into each well, plates were then incubated at RT for 30 min for staining, washed four times with 1% acetic acid to remove any unbound dye and then allowed to air dry for 5 min. Stain was solubilized with 100 ul of 10 mM Tris pH 10.5 per well. Absorbance was read at 570 nm on a spectrophotometer. GI50 (compound concentration required for 50% of growth inhibition) was calculated using GraphPad Prism 4.0 software (GraphPad Software, Inc., San Diego, Calif., USA).
(§3) Cell viability of various cell lines treated with 3-carboxy-N,N,N-trimethyl-2-pentadecanamidopropan-1-aminium (“nPAC”) and compound of Examples S7, S63, S66, S90, S89, S67, S75 and S10 was also assessed in a manner as described above in Example 5.

[2] = system: DU-145; assay: Cell growth inhibition, SRB assay; assay type: cell-based; conditions: Homo sapiens, mean±SD of 2 experiments (FIG. 2)
Procedure: (§4) Human cancer cells (MCF-7, H358, H460, HCT116 p53^+/+, HCT116 p53^−/−, A172, PC-3, DU-145 and SW626) were maintained in DMEM medium containing 10% Fetal Bovine Serum (FBS) (Invitrogen, Burlington, ON, Canada) and normal cells HMEC, 184A1, NHBE and PrEC were cultured in MEGM, MEGM plus transferring and cholera toxin, BEGM and PrEGM supplemented with various growth factors (Cambrex, Charles city, IA, USA), respectively.
as §1, §2

[3] = system: H460; assay: Cell growth inhibition, SRB assay; assay type: cell-based; conditions: Homo sapiens
Procedure: as §4, §1, §2

[4] = system: HCT116 p53+/+; assay: Cell growth inhibition, SRB assay; assay type: cell-based; conditions: Homo sapiens, HCT-116, mean±SD of 2 experiments (FIG. 2)
Procedure: as §4, §1, §2

[5] = system: HCT116 p53−/−; assay: Cell growth inhibition, SRB assay; assay type: cell-based; conditions: Homo sapiens, HCT-116, mean±SD of 2 experiments (FIG. 2)
Procedure: as §4, §1, §2

[6] = system: normal cells, including human mammary epithelial cell line 184A1 and human primary epithelial cells HMEC (mammary); NHBE (lung) and PrEC (prostate); assay: Growth of normal cells, SRB assay; assay type: cell-based; conditions: 184A1, HMEC, SRB assay (FIG. 2B)
Procedure: as §4, §1
(§5) Sulforhodamine B (SRB) (Sigma, Oakville, ON, Canada) is a water-soluble dye that binds to the basic amino acids of the cellular proteins. […] Absorbance was read at 570 nm on a spectrophotometer. […]

[7] = system: MDA-231; assay: Cell growth inhibition, SRB assay; assay type: cell-based, human; conditions: Homo sapiens, MDA-MB-231; Breast MDA-231, 3% FBS
Procedure: as §1, §2, §3

[8] = system: HCT116; assay: Cell growth inhibition, SRB assay, normoxia and hypoxia; assay type: cell-based; conditions: Homo sapiens
Procedure: as §4, §1, §5

Structure (SMILES)	GI50 [1]	GI50 [7]	further results
CCCCCCCCCCCCc1ccc(NS(=O)(=O)N[C@H](CC(=O)O)C[N+](C)(C)C)cc1 [Example S89, (R)-3-(N-(4-dodecylphenyl)sulfamoylamino)-4-(trimethylammonio)-butanoate]	1.5 µM	–	–
CCCCCCCCCCCCCCc1ccc(NS(=O)(=O)N[C@H](CC(=O)O)C[N+](C)(C)C)cc1 [Example S90, (R)-3-(N-(4-tetradecylphenyl)sulfamoylamino)-4-(trimethylammonio)-butanoate]	1.6 µM	–	–
CCCCCCCCc1ccc(NC(=O)N[C@H](CC(=O)[O-])C[N+](C)(C)C)cc1 [Example S7, (R)-3-(3-(4-octylphenyl)ureido)-4-(trimethylammonio)butanoate]	1.3 µM	27 µM	GI50 [2]: 24 ± 2.8 µM; GI50 ([3]; NCI-H460, 144 h, H460, normoxic condition (20% O2) for 6 days, read-out: GI50 Normoxi): 8.8 ± 1.2 µM; GI50 ([3]; NCI-H460, H460, hypoxic condition (0.2% O2) for 2 days, then normoxic for 4 days, read-out: GI50 Hypoxia): 2.6 ± 0.6 µM; GI50 ([3]; NCI-H460, SRB assay, mean±SD of 2 experiments (FIG. 2), read-out: GI50 for H460): 8.8 ± 2 µM; GI50 [4]: 9.3 ± 1.7 µM; GI50 [5]: 13 ± 0.8 µM; growth inhibition of normal cells [6]: inhibits growth of cancer cells but not normal cells; GI50 ([8]; HCT-116, 144 h, normoxic condition (20% O2) for 6 days, read-out: GI50 Normoxi): 9.3 ± 0.7 µM; GI50 ([8]; HCT-116, hypoxic condition (0.2% O2) for 2 days, then normoxic for 4 days, read-out: GI50 Hypoxia): 5.7 ± 0.6 µM
CCCCCCCCCCOc1ccc(C(=O)N[C@H](CC(=O)O)C[N+](C)(C)C)cc1 [Example S63, (R)-3-(4-(decyloxy)benzamido)-4-(trimethylammonio)butanoate 2,2,2-trifluoroacetate]	–	8.5 µM	–
CCCCCCCCCCOc1cccc(C(=O)N[C@H](CC(=O)[O-])C[N+](C)(C)C)c1 [Example S67, (R)-3-(3-(decyloxy)benzamido)-4-(trimethylammonio)butanoate]	0.8 µM	–	–
CCCCCCCCCCc1ccc(C(=O)N[C@H](CC(=O)[O-])C[N+](C)(C)C)cc1 [Example S66, (R)-3-(4-decylbenzamido)-4-(trimethylammonio)butanoate]	–	9.4 µM	–
CCCCCCCOc1ccc(NC(=O)N[C@H](CC(=O)[O-])C[N+](C)(C)C)cc1 [Example S10, (R)-3-(3-(4-(heptyloxy)phenyl)ureido)-4-(trimethylammonio)butanoate]	13 µM	> 50 µM	–
